{
  "source": "patent US20250312416A1",
  "about": "“METHOD AND PHARMACEUTICAL COMPOSITION FOR CARTILAGE REGENERATION” (FAR EASTERN MEMORIAL HOSPITAL, priority 2024, published 2025)",
  "key": {"clinical-grade ADSCs": {"system": "clinical-grade ADSCs", "assay": "Alcian blue staining of chondrogenic pellets (GAG), ADSCs", "type": "cell-based, human", "description": "The chondrogenic differentiation of pellets containing clinical-grade ADSCs was assessed through Alcian blue staining.\nThe chondrogenic differentiation of pellets containing clinical-grade ADSCs was evaluated using Alcian blue staining.\nAlcian blue staining was used to assess the chondrogenic differentiation of ADSC pellets. […] Treatment with CXCL14-PM1, CXCL14-PM2, CXCL14-PM3, and CXCR4-PM1 was sufficient to enhance the expression of chondrogenic genes in ADSCs. On day 7, real-time PCR was performed to analyze the expression of key chondrogenic markers, including SOX9, COL2A1, COMP, ACAN, ITGB1, CXCL14, and CXCR4, in ADSCs treated with these modified peptides. ADSCs were exposed to distinct peptide modifications derived from CXCL12, CXCL14, and CXCR4 at a concentration of 10 ng for a one-day treatment, after which the medium was replaced with fresh peptide-free medium. At the end of the treatment period, RNA was extracted to evaluate the expression levels of chondrogenesis-related cytokine genes. Gene expression quantification was performed using a LightCycler system (Roche Applied Science), and fold changes were calculated relative to untreated control ADSCs. […] FIG. 16(D) provides a summary of the results for alanine substitution with positively or negatively charged amino acids in CXCL12, CXCL14, and CXCR4 peptides.\nTo assess differentiation capacity, single-cell suspensions from cultured IPFP-MSCs and ADSCs were cultivated in chondrogenic medium. Alcian Blue staining was performed on day 7 to evaluate chondrogenic differentiation. The chondrogenic differentiation test was measured gene expressions of ACAN, COL2A1, SOX9, COMP, ITGB1, CXCL14 and SOSTDC1."}, "ADSC spheroids": {"system": "ADSC spheroids", "assay": "Immunofluorescence / confocal microscopy of chondrogenic proteins in ADSC spheroids", "type": "cell-based, human", "conditions": "3D ADSC spheroids, by day 7", "description": "Both side views (observed in the x and z plane) and bottom views (observed in the […]) of the images are provided. The scale bar is set at 500 μm.\nADSCs were treated with CXCL14-P, CXCL14-P1, or CXCL14-P2, respectively, at a concentration of 10 ng for 24 hours, after which the medium was replaced with fresh peptide-free medium. On day 7, total RNA was extracted, and real-time PCR analysis was performed to assess the expression levels of key chondrogenic markers, including ACAN, COL2A1, SOX9, and COMP. Gene expression levels were quantified using a LightCycler system (Roche Applied Science), with fold changes calculated relative to untreated control ADSCs. […] Immunofluorescence staining was performed to detect Collagen Type II, SOX9, COMP, and nuclei (Hoechst 33342) in 3D ADSC spheroids (middle panel).\n(FIG. 3). […] Moreover, fluorescence confocal microscopy was employed to detect protein patterns and confirm the levels of SOX9, type II collagen, and aggrecan proteins in ADSC spheroids. […] Finally, to investigate whether the CXCR4 receptor of CXCL12/CXCL14 confers chondrogenic signaling during chondrogenesis, we treated ADSCs with a CXCR4 agonist for 7 days.\nExtracellular vesicles (EVs) derived from MSCs hold significant potential for repairing damaged tissues. In this study, we explored whether EVs from ADSCs could effectively enhance chondrogenesis and promote cartilage repair. Immunofluorescence staining was used to assess protein levels of Collagen Type II (green), SOX9 (red), COMP (indigo), and Hoechst 33342 (gray) in 3D ADSC spheroids treated with MSC-EVs derived from CXCL14 peptide-primed ADSCs (CXCL14-P-MSC-EVs) at various time points. […] To further explore the cartilage repair functions of EVs from CXCL14-P-treated ADSCs and the encapsulation of the transcription factor SOX9 within MSCs and purified EVs, we performed in vivo studies."}, "UC-MSCs": {"system": "UC-MSCs", "assay": "Real-time PCR of chondrogenic genes in UC-MSCs", "type": "cell-based", "conditions": "day 7 of peptide treatment", "excerpt": "FIG. 13A provides flowchart illustrating the protocol for peptide treatment and sample collection. […] TGF-beta influenced the expression of chondrogenic genes, including ITGB1 and COMP. […] Treatment with CXCL14/CXCL12 peptides increased GAG content during chondrogenesis in the presence of TGF-beta.\nTo further validate the role of CXCL14-P and CXCL12-P in regulating chondrogenesis, we compared their effects on another MSC source, umbilical cord-derived mesenchymal stem cells (UC-MSCs). It is important to note that the chondrogenic induction medium contained TGF-β. During chondrogenesis, we observed that the chondrogenic patterns in UC-MSCs were lower than those in ADSCs (FIG. 12). Subsequently, we assessed the chondrogenic potential of UC-MSCs following stimulation with CXCL14-P and CXCL12-P (FIG. 13A). […] Although the expression of chondrogenic genes (FIG. 13B) and GAG content (FIG. 13C) in UC-MSCs was not as pronounced as in ADSCs, the findings confirm that CXCL14-P and CXCL12-P can robustly stimulate chondrogenesis across different MSC sources."}},
  "note": "“Also recorded” adds a separate entry of the source.",
  "data": [
    {"sequence": "ITTKSVSRYRGQEH [CXCL14-P]", "values": [
      {"measurement": "GAG content (Alcian blue)", "setting": "clinical-grade ADSCs; in the absence of TGF-β", "value": "evident"},
      {"measurement": "GAG content (Alcian blue)", "setting": "clinical-grade ADSCs; in the presence of TGF-beta", "value": "significantly increased"},
      {"measurement": "GAG content (Alcian blue)", "setting": "clinical-grade ADSCs; peptides compared to CXCL14/CXCL12 proteins, listed as CXCL14 peptide", "value": "significantly higher; also recorded: greater ability"},
      {"measurement": "Collagen Type II, SOX9, and COMP expression", "setting": "ADSC spheroids", "value": "increase"},
      {"measurement": "chondrogenic gene expression (COMP, SOX9, COL2A1, ACAN, ITGB1)", "setting": "UC-MSCs", "value": "significantly upregulated"}
    ]}
  ]
}
